Assay results: US6555523B1, “Use of cirsiliol and derivatives to treat infections” (priority 1999, dated 2003)
In brackets after ≈: the same amount, converted by molar mass. Several values for one entry are separate records, joined by “and”; a condition that tells them apart may be missing. Equal values may be shown once. Marks after values point to notes of the source that are not given here.

What was measured:
HIV Merck 1022-48 = experiment: Anti-HIV assay in fresh human PBL (RT activity), Protocol D1; assay type: cell-based; details: Human immunodeficiency virus 1, PBMC
HIV clade F BR/92/021 = experiment: as above; details: Human immunodeficiency virus 1, PBMC
HIV Merck 1026-60 = experiment: as above; details: Human immunodeficiency virus 1, PBMC
HIV Ba-L = experiment: Anti-HIV assay in fresh human monocyte-macrophages (p24 ELISA), Protocol D2; assay type: cell-based; details: Human immunodeficiency virus 1, BAL, Macrophage, Protocol D2
Description: Protocol D2—Assay in fresh human monocyte-macrophages. […] The cells are placed in a 96-well microtiter plate at 37° C. for 2 hours. Non-adherent cells are removed by vigorously washing six times. […] The cultures are carefully monitored for confluency during this incubation period. Infection of the cells is performed with monocytotropic HIV-1 isolates. High titer pools of each of these viruses are harvested from infected cultures of peripheral blood adherent cells and frozen in 1.0 ml aliquots at −80° C. Monocytemacrophage monolayers are infected at a multiplicity of infection (“MOI”) of 0.1.
(§1) At 2 days post-infection, the medium is decanted and the cultures washed twice with complete medium in order to remove excess virus. Fresh medium alone or medium containing the appropriate concentration of drug is added and incubation continued for an additional five days. XTT staining for cytotoxicity and HIV p24 ELISA assays for production of p24 core antigen are performed on Day 7 post infection. This is performed according the ELISA kit assay manufacturers recommendations. Control curves are generated in each assay to accurately quantitate the amount of capsid protein in each sample. Data is obtained by spectrophotometric analysis at 450 nm using a Molecular Devices Vmax plate reader. P24 concentrations are calculated form the optical density values by use of the Molecular Device software package Soft Max.
Most of the values were based on average values that were obtained from duplicate or triplicate assay wells.

HIV Merck 52-52 = experiment: Anti-HIV assay in fresh human PBL (RT activity), Protocol D1; details: Human immunodeficiency virus 1, PBMC
HIV clade B BR/92/014 = experiment: as above; details: Human immunodeficiency virus 1, PBMC
[1] = Drug cytotoxicity by XTT in monocyte-macrophages, Protocol D2; assay type: cell-based; details: human; macrophage; Protocol D2; read-out: TC50
Description: Protocol D2—Assay in fresh human monocyte-macrophages. […] The cells are placed in a 96-well microtiter plate at 37° C. for 2 hours. Non-adherent cells are removed by vigorously washing six times. […] The cultures are carefully monitored for confluency during this incubation period. Infection of the cells is performed with monocytotropic HIV-1 isolates. […] Monocytemacrophage monolayers are infected at a multiplicity of infection (“MOI”) of 0.1.
as §1

HIV Merck 1002-60 = experiment: Anti-HIV assay in fresh human PBL (RT activity), Protocol D1; details: Human immunodeficiency virus 1, PBMC
HIV clade E THA/93/073 = experiment: as above; details: Human immunodeficiency virus 1, PBMC
HIV Merck 144-44 = experiment: as above; details: Human immunodeficiency virus 1, PBMC
HIV Merck 1064-52 = experiment: as above; details: Human immunodeficiency virus 1, PBMC
HIV clade A UG/93/037 = experiment: as above; details: Human immunodeficiency virus 1, PBMC
MDBK cells = experiment: Cytotoxicity in MDBK cultures (BVDV test); details: at 10.000 μg/mL, no toxicity at lower concentrations
Description: As a comparison, similar tests were conducted using ribavirin.

[2] = system: Bovine Viral Diarrhea Virus; experiment: Plaque formation by Bovine Viral Diarrhea Virus in MDBK cultures; assay type: cell-based, bovine viral diarrhea virus (BVDV); details: for % Reduction: plaques; for Number of plaques: Tests 1-3, control 68
Description: HCV in vitro assays. No well-accepted model exists for HCV and new compounds for use in the treatment of HCV are frequently tested for activity against bovine viral diarrhea virus (BVDV), a virus which is related to HCV.
A representative compound according to the present invention, naringin (i.e., 7-neohesperidoside, 5, 4′ dihydroxyflavanone) was tested for anti-BVDV activity in MDBK cells.

[3] = Drug solubility observed in the BVDV test; details: BVDV test in MDBK cultures; naringin solvent EtOH
in vitro [4] = details: human, TC50
HIV ROJO = experiment: Anti-HIV assay in fresh human PBL (RT activity), Protocol D1; details: Human immunodeficiency virus 1, PBMC
[5] = Drug cytotoxicity by XTT in PBL, Protocol D1; details: human, TC50, PBMC, printed on each HIV isolate line
toxoplasma = experiment: Inhibition of parasite levels in vivo, mice infected with 20 toxoplasma cysts; parameters: species or system Mice (C57BL/6)
Description: Inhibition of parasite levels in vivo. Mice (C57BL/6) were infected with 20 toxoplasma cysts and then treated with cirsiliol or control vehicle (0.1% DMSO). After the treatment, the level of toxoplasma cysts in the brain was reduced (about 1.5-2 fold) by the cirsiliol treatment compared to the control.

rhinovirus 14 = experiment: Anti-picornaviral virus yield assay, Protocol B; assay type: cell-based, Rhinovirus type 14; details: Enterovirus
parainfluenza HA-1 = experiment: CPE-inhibition (microscopic) assay, Protocol A2; assay type: cell-based, parainfluenza virus; details: HEp-2, cell Hep2 (cell blank for 3-(4′-bromophenyl) coumarin)
[6] = Drug cytotoxicity, Protocol A2 (microscopic); details: human, Hep2 cell monolayers
T, gondii RH = experiment: In-vitro anti Toxoplasma gondii activity in HFF, Protocol C; assay type: cell-based
Description: Protocol C—In-vitro testing of anti Toxoplasma gondii activity of Cirsiliol and Naringin. The compounds were tested in an in vitro cell culture assay utilizing human fibroblasts (HFF line) as the host cell. RH strain Toxoplasma gondii that has been transfected with β-galactosidase as a marker for quantitative detection of parasite number (RH Bgal), was used as the challenge organism. The compounds ere dissolved, and then diluted in cell culture medium at least 100 fold for the assays. Controls containing the maximum concentration of solvent used in the assay were run with each test. The active drugs were added and the monolayers were infected immediately at the beginning of each test. Extracellular T. gondii were removed by rinsing the monolayer, and infected host cells remained in contact with the cells for the entire test period. Each test was terminated when at least four parasite doublings could be visually identified in the control monolayers, and parasite numbers were quantitated by standard colorimetric assay for bet galactosidase activity with optical density at 550 nm as the readout. The optical density in this assay has a direct and linear correlation with parasite numbers over a 5-log parasite concentration. Toxicity in the host cells was determined by inspection for cytopathic effects and visual evaluation of cell growth.

Influenza A = experiment: CPE-inhibition (microscopic) assay, Protocol A2; assay type: cell-based; details: Influenza A virus, MDCK
in vitro [7] = details: dog

## COc1ccc(-c2cc(=O)c3c(OC)c(OC)c(OC)c(OC)c3o2)cc1 [Tangeretin, tangeretin]
HIV Merck 1022-48
  IC50: 20.8 µM
HIV clade F BR/92/021
  IC50: 15.7 µM
HIV Merck 1026-60
  IC50: 19.8 µM
HIV Ba-L
  IC50: > 100 µM
HIV Merck 52-52
  IC50: 18.2 µM
HIV clade B BR/92/014
  IC50: 12.3 µM
[1]
  CC50 at 7 days: > 100 µM
HIV Merck 1002-60
  IC50: 9.7 µM
HIV clade E THA/93/073
  IC50: 15.3 µM
HIV Merck 144-44
  IC50: 14.7 µM
HIV Merck 1064-52
  IC50: 15 µM
HIV clade A UG/93/037
  IC50: 19.4 µM

## NC(=O)c1ncn([C@@H]2O[C@H](CO)[C@@H](O)[C@H]2O)n1 [Ribavirin, ribavirin, reference compound]
MDBK cells
  toxicity to the cells: *Partial toxicity to the cells was observed with no toxicity at lower concentrations
[2]; BVDV plaque formation in MDBK, table footnote, unit from the table's concentration head
  ID50: 1.24 µg/mL (≈ 5.08 µM)
[2]; ribavirin 0.320 μg/mL
  % Reduction: 14.10%
  Number of plaques: 55 and 62 and 59
[2]; ribavirin 1.000 μg/mL
  % Reduction: 38.99%
  Number of plaques: 36 and 42 and 47
[2]; ribavirin 3.200 μg/mL
  % Reduction: 93.65%
  Number of plaques: 4 and 5
[2]; ribavirin 10.000 μg/mL, partial toxicity to the cells
  % Reduction: 100.00* %
[2]; ribavirin 10.000 μg/mL
  Number of plaques: 0
[3]
  drug solubility observation: Comment: Positive control drug. Drug was soluble in medium.

## O=c1cc(-c2ccccc2)oc2ccc(O)cc12 [6-Hydroxyflavone, 6-hydroxyflavone]
In vitro [4]
  CC50: 53.9 µM
HIV ROJO
  IC50: 41.8 µM

## COc1ccc([C@@H]2CC(=O)c3c(O)cc(O)cc3O2)cc1O [Hesperetin, hesperetin]
[5]
  CC50: 190 µM
HIV ROJO
  IC50: 134 µM

## O=c1cc(-c2ccccc2)oc2ccccc12 [Flavone, flavone]
In vitro [4]
  CC50: 173 µM
HIV ROJO
  IC50: 86.6 µM

## COc1cc2oc(-c3ccc(O)c(O)c3)cc(=O)c2c(O)c1OC [Cirsiliol, 6,7′-dimethoxy-5,3′,4′-trihydroxyflavone]
toxoplasma; 8 mice, 21-day post infection follow up, 4 of 8 vehicle control mice died by 15 days
  survival of toxoplasmosis infection: all 8 cirsiliol treated mice survived
toxoplasma; C57BL/6 mice, 20 toxoplasma cysts, control vehicle 0.1% DMSO
  level of toxoplasma cysts in the brain reduced compared to the control: 1.5-2 fold
Rhinovirus 14
  IC50: ~3 µM
Parainfluenza HA-1
  IC50: 7.8 µM
[6]
  CC50: 12.5 µM
T, gondii RH
  IC50: ~2 µM
Influenza A
  IC50: > 200 µM
In vitro [7]
  CC50: < 6.3 µM

## O=c1oc2ccccc2cc1-c1ccc(Br)cc1 [3-(4′-Bromophenyl) coumarin, 3-(4′-bromophenyl) coumarin]
Parainfluenza HA-1
  IC50: 6.3 µM
[6]
  CC50: 100 µM
